As usually defined, the Ki is a dissociation constant, usually derived from enzyme kinetics or from competition with a known ligand.

The assay has as its target Salicylate synthase (Mycobacterium tuberculosis (strain CDC 1551 / Oshkosh), UniProt P9WFX0). The experiment in a line: Fluorescence-Based Thermal Shift Assay. The method, then: The thermal stability of MbtI in the absence and presence of inhibitors was measured using a fluorescence-based thermal shift assay.

Sequence of Salicylate synthase (P9WFX0 whole entry): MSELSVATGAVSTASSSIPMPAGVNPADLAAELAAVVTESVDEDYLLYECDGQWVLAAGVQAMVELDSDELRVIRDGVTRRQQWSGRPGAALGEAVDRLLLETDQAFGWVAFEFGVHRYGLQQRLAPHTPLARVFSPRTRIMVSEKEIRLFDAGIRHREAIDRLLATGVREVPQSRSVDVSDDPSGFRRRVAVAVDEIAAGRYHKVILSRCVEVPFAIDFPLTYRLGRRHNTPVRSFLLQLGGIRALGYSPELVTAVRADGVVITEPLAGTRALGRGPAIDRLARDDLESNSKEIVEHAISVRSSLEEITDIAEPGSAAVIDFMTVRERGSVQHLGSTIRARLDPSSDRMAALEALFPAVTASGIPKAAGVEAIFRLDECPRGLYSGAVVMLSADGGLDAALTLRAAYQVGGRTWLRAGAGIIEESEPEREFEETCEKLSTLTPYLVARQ

In the case of `O=C(O)C(=CC1CC1)Oc1cccc(C(=O)O)c1O` [cyclopropyl-AMT], the inhibition constant Ki turned out to be 12 µM.
